Values quoted from earlier work as cited in patent US11485730B2, “Compositions and methods for the treatment of fungal infections” (Cellix Bio Private Limited, priority 2016, dated 2022).
Where two headings read alike, the source gives them in different places.

Assays:
[1] = among the long-chain fatty acids
[2] = tested on: oral streptococci and periodontopathogens
[3] = tested on: various oral pathogenic microorganisms

CCCCC/C=C\C/C=C\C/C=C\C/C=C\CCCC(=O)O [arachidonic acid]
antimicrobial activity [1]: greatest antimicrobial activity

CCCCC/C=C\C/C=C\CCCCCCCC(=O)O [linoleic acid]
activity against C. albicans (C. albicans): < 40%
MIC (Candida Species): 450 µM
MIC (Candida Species; printed as corresponding to 0.45 μmoles/ml): 0.13 µg/mL
bactericidal concentration [2]: 25 µg/mL
antimicrobial activity [1]: greatest antimicrobial activity

CCCCC/C=C\C/C=C\C/C=C\CCCCC(=O)O [GLA, gamma linoleic acid]
bactericidal concentration ([2]; n-6 fatty acids): 25 µg/mL
anti-microbial activity ([3]; in vitro studies, various oral pathogenic microorganisms): significant anti-microbial activity
antimicrobial activities ([3]; various oral microorganisms, including S. mutans, A. actinomycetemcomitans, C. albicans, P. gingivalis, F. nucleatum, S. gordonii): antimicrobial activities
antimicrobial activity [1]: greatest antimicrobial activity

CCCCCCCCCCCCCCCC(=O)O [palmitic acid]
antimicrobial activity [1]: greatest antimicrobial activity

CCCCCC/C=C\CCCCCCCC(=O)O [palmitoleic acid]
antimicrobial activity [1]: greatest antimicrobial activity
